Data: US10363239B2, “Method for inhibiting growth of cancer cells” (Pain Therapeutics, Inc., priority 2013, dated 2019)
Read-outs that look alike come from different tables or passages of the source.

How the values were obtained:
[1] = biological target: FLNA pentapeptide of SEQ ID NO: 1 (Bn-VAKGL) (Homo sapiens, UniProt P21333); experiment: FITC-NLX-based FLNA screening assay (inhibition of FITC-naloxone binding to Bn-VAKGL on streptavidin plates); settings: 10 nM FITC-NLX
mu opiate receptor (MOR) = experiment: MOR agonist activity using [35S]GTPγS binding assay in striatal membranes; format: biochemical; settings: for MOR agonist activity ([35S]GTPγS binding), FLNA-Binding Compound as Agonist 1 μM + BFNA: 1 μM compound + 1 μM β-funaltrexamine
Summary of the method: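 Striatal membranes (200 μg) were preincubated 5 min at 30 °C in HEPES pH 7.5 with 100 mM NaCl, 1 mM MgCl2 and 0.5 nM [35S]GTPγS, then 5 min more with 0.1–10 μM compound. Gαo was immunoprecipitated and bound radioactivity counted by scintillation.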

[2] = FLNA-binding compound 0.01 μM, read-out: Percent Binding Inhibition
[3] = FLNA-binding compound 0.1 μM, read-out: Percent Binding Inhibition
[4] = FLNA-binding compound 1 μM, read-out: Percent Binding Inhibition
[5] = Series C-2, 0.1 μM compound, relative to DAMGO
[6] = Series C-2, 0.1 μM compound, [35S]GTPγS binding to Gαo, striatal membranes
[7] = Series C-2, 1 μM compound + 1 μM β-FNA
[8] = Series C-2, 1 μM compound + β-FNA, relative to DAMGO + BFNA
[9] = Series C-2, 1 μM compound, relative to DAMGO
[10] = Series C-2, 1 μM compound, [35S]GTPγS binding to Gαo, striatal membranes
[11] = 0.1 μM compound relative to DAMGO
[12] = 1 μM compound + BFNA relative to DAMGO + BFNA
[13] = 1 μM compound relative to DAMGO
[14] = read-out: Percent Binding Inhibition, FLNA-binding compound 0.01 μM
[15] = read-out: Percent Binding Inhibition, FLNA-binding compound 0.1 μM
[16] = read-out: Percent Binding Inhibition, FLNA-binding compound 1 μM
[17] = Series C-1, 0.1 μM compound, relative to DAMGO
[18] = Series C-1, 0.1 μM compound, [35S]GTPγS binding to Gαo, striatal membranes
[19] = Series C-1, 1 μM compound + 1 μM β-FNA
[20] = Series C-1, 1 μM compound + β-FNA, relative to DAMGO + BFNA
[21] = Series C-1, 1 μM compound, relative to DAMGO
[22] = Series C-1, 1 μM compound, [35S]GTPγS binding to Gαo, striatal membranes

SMILES	inhibition at 0.01 µM [1, 2]	inhibition at 0.1 µM [1, 3]	inhibition at 1 µM [1, 4]	% DAMGO (0.1 μM) (mu opiate receptor (MOR); [5])	MOR agonist activity, percent [35S]GTPγS binding at the stated compound concentration (mu opiate receptor (MOR); [6])	MOR agonist activity, percent [35S]GTPγS binding at the stated compound concentration (mu opiate receptor (MOR); [7])	% DAMGO + BFNA (mu opiate receptor (MOR); [8])	% DAMGO (1 μM) (mu opiate receptor (MOR); [9])	MOR agonist activity, percent [35S]GTPγS binding at the stated compound concentration (mu opiate receptor (MOR); [10])	inhibition at 0.01 µM [1, 14]	inhibition at 0.1 µM [1, 15]	inhibition at 1 µM [1, 16]	% DAMGO (0.1 μM) (mu opiate receptor (MOR); [17])	Concentration of FLNA-Binding Compound as Agonist 0.1 μM (mu opiate receptor (MOR); [18])	Concentration of FLNA-Binding Compound as Agonist 1 μM + BFNA (mu opiate receptor (MOR); [19])	% DAMGO + BFNA (mu opiate receptor (MOR); [20])	% DAMGO (1 μM) (mu opiate receptor (MOR); [21])	Concentration of FLNA-Binding Compound as Agonist 1 μM (mu opiate receptor (MOR); [22])	other results
O=[N+]([O-])c1ccc(S(=O)(=O)N2CCC3(CC2)NCCO3)cc1 [Compound C0040]	38.4%	46.3%	55.9%	93.1%	145.8%	90.4%	277.3%	133.2%	308.3%	–	–	–	–	–	–	–	–	–	–
CC1CN(CC(O)COc2ccc(Cl)cc2)CC(C)O1 (stereo not drawn) [Compound A0047]	40.9%	42.9%	44.5%	–	–	–	–	–	–	–	–	–	–	–	–	–	–	–	MOR agonist activity ([35S]GTPγS binding), FLNA-Binding Compound as Agonist 0.1 μM (mu opiate receptor (MOR); 0.1 μM compound): 233.0%; % DAMGO (0.1 μM) (mu opiate receptor (MOR); [11]): 118.8%; MOR agonist activity ([35S]GTPγS binding), FLNA-Binding Compound as Agonist 1 μM (mu opiate receptor (MOR); 1 μM compound): 255.0%; MOR agonist activity ([35S]GTPγS binding), FLNA-Binding Compound as Agonist 1 μM + BFNA (mu opiate receptor (MOR)): 116.5%; % DAMGO + BFNA (mu opiate receptor (MOR); [12]): 157.6%; % DAMGO (1 μM) (mu opiate receptor (MOR); [13]): 92.4%
COc1ccc(OCC(O)CN2CC(C)OC(C)C2)cc1 (stereo not drawn) [Compound A0048]	–	–	–	–	–	–	–	–	–	38.5%	44%	46.9%	–	–	–	–	–	–	MOR agonist activity ([35S]GTPγS binding), FLNA-Binding Compound as Agonist 0.1 μM (mu opiate receptor (MOR); 0.1 μM compound): 233.7%; % DAMGO (0.1 μM) (mu opiate receptor (MOR); [11]): 119.1%; MOR agonist activity ([35S]GTPγS binding), FLNA-Binding Compound as Agonist 1 μM (mu opiate receptor (MOR); 1 μM compound): 302.9%; MOR agonist activity ([35S]GTPγS binding), FLNA-Binding Compound as Agonist 1 μM + BFNA (mu opiate receptor (MOR)): 167.2%; % DAMGO + BFNA (mu opiate receptor (MOR); [12]): 226.3%; % DAMGO (1 μM) (mu opiate receptor (MOR); [13]): 109.7%
COc1c2c(cc3c1C(CC(=O)Cc1ccccc1C)[N+](C)(C)CC3)OCO2 (stereo not drawn) [Compound B0031]	–	–	–	–	–	–	–	–	–	36.2%	44.2%	50.5%	–	–	–	–	–	–	% DAMGO (0.1 μM) (mu opiate receptor (MOR); Series B, 0.1 μM compound, relative to DAMGO): 109.6%; MOR agonist activity, percent [35S]GTPγS binding at the stated compound concentration (mu opiate receptor (MOR); Series B, 0.1 μM compound, [35S]GTPγS binding to Gαo, striatal membranes): 210.8%; MOR agonist activity, percent [35S]GTPγS binding at the stated compound concentration (mu opiate receptor (MOR); Series B, 1 μM compound + 1 μM β-FNA): 28.8%; % DAMGO + BFNA (mu opiate receptor (MOR); Series B, 1 μM compound + β-FNA, relative to DAMGO + BFNA): 65.6%; % DAMGO (1 μM) (mu opiate receptor (MOR); Series B, 1 μM compound, relative to DAMGO): 99.6%; MOR agonist activity, percent [35S]GTPγS binding at the stated compound concentration (mu opiate receptor (MOR); Series B, 1 μM compound, [35S]GTPγS binding to Gαo, striatal membranes): 272.0%
COc1cccc(S(=O)(=O)N2CCC3(CC2)OCCN3S(=O)(=O)c2cccc(OC)c2)c1 [Compound C0002]	–	–	–	–	–	–	–	–	–	38.4%	45.6%	42.8%	51.4%	88.4%	3.9%	6.1%	33.9%	93.8%	–
COc1ccc(NC(=O)N2CCC3(CC2)OCCN3C(=O)Nc2ccc(OC)cc2)cc1 [Compound C0151M]	–	–	–	–	–	–	–	–	–	48.3%	51.7%	58.7%	201.6%	346.8%	212.8%	233.1%	122.0%	397.6%	–
CC(=O)c1ccc(S(=O)(=O)N2CCC3(CC2)OC(CN(C)C)CN3S(=O)(=O)c2ccc(C(C)=O)cc2)cc1 (stereo not drawn) [Compound C0065]	–	–	–	–	–	–	–	–	–	37.1%	44%	47%	127.0%	198.3%	47.7%	119.5%	121.3%	279.5%	–
CCN1CCC2(CC1)OCCN2S(=O)(=O)c1ccc(C(C)=O)cc1 [Compound C0094M]	43%	52.8%	57.5%	100.2%	172.5%	115.3%	334.2%	119.9%	263.5%	–	–	–	–	–	–	–	–	–	–
CCN1CCC2(CC1)OCCN2S(=O)(=O)c1ccc(OC)cc1 [Compound C0089M]	40.7%	46.1%	51.2%	136.3%	234.5%	81.9%	237.4%	134.4%	295.3%	–	–	–	–	–	–	–	–	–	–
